# Results reported in US7544704B2, “Aryl-4-ethynyl-isoxazole derivatives” (Hoffmann-La Roche Inc., priority 2006, dated 2009).
# Molecular target: T1, human GABA A receptor α5β3γ2 (Homo sapiens, UniProt P18507+P31644)
# T1 construct: expressed in transfected cells; host or cells: HEK293 (transiently transfected), membranes
# Assay: [3H]flumazenil competition binding to HEK293 cell membranes expressing human GABA A α5β3γ2
# Conditions: displacement of [3H]flumazenil (0.5 nM), human α5β3γ2 transiently transfected in HEK293, means of two determinations; read-out: Ki[nM] hα5
# Experimental: Membrane Preparation and Binding Assay
# The affinity of compounds at GABA A receptor subtypes was measured by competition for [3H]flumazenil (85 Ci/mmol; Roche) binding to HEK293 cells expressing rat (stably transfected) or human (transiently transfected) receptors of composition α1β3γ2, α2β3γ2, α3β3γ2 and α5β3γ2.
# Cell pellets were suspended in Krebs-tris buffer (4.8 mM KCl, 1.2 mM CaCl2, 1.2 mM MgCl2, 120 mM NaCl, 15 mM Tris; pH 7.5; binding assay buffer), homogenized by polytron for ca. 20 sec on ice and centrifuged for 60 min at 4° C. (50000 g; Sorvall, rotor: SM24=20000 rpm). The cell pellets were resuspended in Krebs-tris buffer and homogenized by polytron for ca. 15 sec on ice. Protein was measured (Bradford method, Bio-Rad) and aliquots of 1 mL were prepared and stored at −80° C.
# Radioligand binding assays were carried out in a volume of […] (96-well plates) which contained […] of cell membranes, [3H]flumazenil at a concentration of 1 nM for α1, α2, α3 subunits and 0.5 nM for a5 subunits and the test compound in the range of […]. Nonspecific binding was defined by 10^−5 M diazepam and typically represented less than 5% of the total binding. Assays were incubated to equilibrium for 1 hour at 4° C. and harvested onto GF/C uni-filters (Packard) by filtration using a Packard harvester and washing with ice-cold wash buffer (50 mM Tris; pH 7.5). After drying, filter-retained radioactivity was detected by liquid scintillation counting. Ki values were calculated using Excel-Fit (Microsoft) and are the means of two determinations.
row,SMILES,Ki
1,"Cc1onc(-c2ccccc2)c1C#Cc1cccc(C(=O)NC2CCOCC2)c1 [Example 8, 3-(5-Methyl-3-phenyl-isoxazol-4-ylethynyl)-N-(tetrahydro-pyran-4-yl)-benzamide]",91.6 nM
2,"COC(=O)c1ccccc1C#Cc1c(-c2ccccc2)noc1C [Example 12, 2-(5-Methyl-3-phenyl-isoxazol-4-ylethynyl)-benzoic acid methyl ester]",87.3 nM
3,"COC(=O)c1ccnc(C#Cc2c(-c3ccccc3)noc2C)c1 [Example 17, 2-(5-Methyl-3-phenyl-isoxazol-4-ylethynyl)-isonicotinic acid methyl ester]",74.9 nM
4,"CCOC(=O)c1nc(C)sc1C#Cc1c(-c2ccccc2)noc1C [Example 24, 2-Methyl-5-(5-methyl-3-phenyl-isoxazol-4-ylethynyl)-thiazole-4-carboxylic acid ethyl ester]",85.2 nM
5,"Cc1onc(-c2ccccc2)c1C#Cc1cc(C(=O)NCC2CC2)ccn1 [Example 27, N-Cyclopropylmethyl-2-(5-methyl-3-phenyl-isoxazol-4-ylethynyl)-isonicotinamide]",39.8 nM
6,"Cc1onc(-c2ccccc2)c1C#Cc1cc(C(=O)NC2CCOCC2)ccn1 [Example 28, 2-(5-Methyl-3-phenyl-isoxazol-4-ylethynyl)-N-(tetrahydro-pyran-4-yl)-isonicotinamide]",20.7 nM
7,"Cc1csc(NC(=O)c2ccnc(C#Cc3c(-c4ccccc4)noc3C)c2)n1 [Example 29, 2-(5-Methyl-3-phenyl-isoxazol-4-ylethynyl)-N-(4-methyl-thiazol-2-yl)-isonicotinamide]",90.1 nM
8,"Cc1onc(-c2ccccc2)c1C#Cc1ncc(-c2ccccc2)n1C [Example 32, 5-Methyl-4-(1-methyl-5-phenyl-1H-imidazol-2-ylethynyl)-3-phenyl-isoxazole]",28.4 nM
9,"Cc1onc(-c2ccccc2)c1C#Cc1ncc(C)n1-c1ccccc1 [Example 33, 5-Methyl-4-(5-methyl-1-phenyl-1H-imidazol-2-ylethynyl)-3-phenyl-isoxazole]",23.7 nM
10,"Cc1cccnc1C#Cc1c(-c2ccccc2)noc1C [Example 39, 3-Methyl-2-(5-methyl-3-phenyl-isoxazol-4-ylethynyl)-pyridine]",28.9 nM
11,"CCOC(=O)c1c(C)nc(C#Cc2c(-c3ccccc3)noc2C)n1C [Example 50, 3,5-Dimethyl-2-(5-methyl-3-phenyl-isoxazol-4-ylethynyl)-3H-imidazole-4-carboxylic acid ethyl ester]",7.3 nM
12,"Cc1onc(-c2ccccc2)c1C#Cc1nc2n(c1C)CCCC2 [Example 52, 3-Methyl-2-(5-methyl-3-phenyl-isoxazol-4-ylethynyl)-5,6,7,8-tetrahydro-imidazo[1,2-a]pyridine]",15.5 nM
13,"Cc1onc(-c2ccccc2)c1C#Cc1cc(-c2ccc(F)cc2)n(C)n1 [Example 53, 4-[5-(4-Fluoro-phenyl)-1-methyl-1H-pyrazol-3-ylethynyl]-5-methyl-3-phenyl-isoxazole]",52.6 nM
14,"Cc1onc(-c2ccccc2)c1C#Cc1nc(C)n(-c2cc(F)cc(F)c2)c1C [Example 56, 4-[1-(3,5-Difluoro-phenyl)-2,5-dimethyl-1H-imidazol-4-ylethynyl]-5-methyl-3-phenyl-isoxazole]",23.5 nM
15,"Cc1onc(-c2ccccc2)c1C#Cc1nc(C)n(-c2ccc(F)cc2)c1C [Example 57, 4-[1-(4-Fluoro-phenyl)-2,5-dimethyl-1H-imidazol-4-ylethynyl]-5-methyl-3-phenyl-isoxazole]",39.1 nM
16,"Cc1onc(-c2ccc(Cl)cc2)c1C#Cc1ccccn1 [Example 59, 2-[3-(4-Chloro-phenyl)-5-methyl-isoxazol-4-ylethynyl]-pyridine]",54.5 nM
17,"COC(=O)c1csc(C#Cc2c(-c3ccccc3)noc2C)n1 [Example 61, 2-(5-Methyl-3-phenyl-isoxazol-4-ylethynyl)-thiazole-4-carboxylic acid methyl ester]",31.9 nM

# Continued, values first:
row,Ki,SMILES
1,47.9 nM,"Cc1onc(-c2ccccc2)c1C#Cc1ccccn1 [Example 1, 2-(5-Methyl-3-phenyl-isoxazol-4-ylethynyl)-pyridine]"
2,38.4 nM,"Cc1onc(-c2ccccc2)c1C#Cc1ccccc1N [Example 14, 2-(5-Methyl-3-phenyl-isoxazol-4-ylethynyl)-phenylamine]"
3,26.6 nM,"Cc1ccc(C#Cc2c(-c3ccccc3)noc2C)nn1 [Example 19, 3-Methyl-6-(5-methyl-3-phenyl-isoxazol-4-ylethynyl)-pyridazine]"
4,26 nM,"Cc1onc(-c2ccccc2)c1C#Cc1nccn1C [Example 21, 5-Methyl-4-(1-methyl-1H-imidazol-2-ylethynyl)-3-phenyl-isoxazole]"
5,77.2 nM,"Cc1ncc(C#Cc2c(-c3ccccc3)noc2C)[nH]1 [Example 22, 5-Methyl-4-(2-methyl-3H-imidazol-4-ylethynyl)-3-phenyl-isoxazole]"
6,53 nM,"Cc1c[nH]nc1C#Cc1c(-c2ccccc2)noc1C [Example 23, 5-Methyl-4-(4-methyl-1H-pyrazol-3-ylethynyl)-3-phenyl-isoxazole]"
7,10.4 nM,"Cc1cnc(C)c(C#Cc2c(-c3ccccc3)noc2C)n1 [Example 26, 2,5-Dimethyl-3-(5-methyl-3-phenyl-isoxazol-4-ylethynyl)-pyrazine]"
8,71.9 nM,"Cc1onc(-c2ccccc2)c1C#Cc1cccc(Cl)n1 [Example 30, 2-Chloro-6-(5-methyl-3-phenyl-isoxazol-4-ylethynyl)-pyridine]"
9,45.5 nM,"Cc1ccc(C#Cc2c(-c3ccccc3)noc2C)nc1 [Example 31, 5-Methyl-2-(5-methyl-3-phenyl-isoxazol-4-ylethynyl)-pyridine]"
10,59.2 nM,"Cc1onc(-c2ccccc2)c1C#Cc1cnccn1 [Example 34, 2-(5-Methyl-3-phenyl-isoxazol-4-ylethynyl)-pyrazine]"
11,39.3 nM,"Cc1cccc(C#Cc2c(-c3ccccc3)noc2C)n1 [Example 35, 2-Methyl-6-(5-methyl-3-phenyl-isoxazol-4-ylethynyl)-pyridine]"
12,48 nM,"Cc1ccnc(C#Cc2c(-c3ccccc3)noc2C)c1 [Example 37, 4-Methyl-2-(5-methyl-3-phenyl-isoxazol-4-ylethynyl)-pyridine]"
13,37 nM,"Cc1onc(-c2ccccc2)c1C#Cc1cc(C(F)(F)F)ccn1 [Example 38, 2-(5-Methyl-3-phenyl-isoxazol-4-ylethynyl)-4-trifluoromethyl-pyridine]"
14,55.7 nM,"Cc1onc(-c2ccccc2)c1C#Cc1ccc(N)cn1 [Example 41, 6-(5-Methyl-3-phenyl-isoxazol-4-ylethynyl)-pyridin-3-ylamine]"
15,81.7 nM,"Cc1onc(-c2ccccc2)c1C#Cc1ccc(Cl)cn1 [Example 42, 5-Chloro-2-(5-methyl-3-phenyl-isoxazol-4-ylethynyl)-pyridine]"
16,38.9 nM,"CCc1ccnc(C#Cc2c(-c3ccccc3)noc2C)c1 [Example 44, 4-Ethyl-2-(5-methyl-3-phenyl-isoxazol-4-ylethynyl)-pyridine]"
17,84.4 nM,"Cc1onc(-c2ccccc2)c1C#Cc1cnc2ccccc2n1 [Example 45, 2-(5-Methyl-3-phenyl-isoxazol-4-ylethynyl)-quinoxaline]"
18,18.3 nM,"Cc1onc(-c2ccccc2)c1C#Cc1cncc(N)n1 [Example 46, 6-(5-Methyl-3-phenyl-isoxazol-4-ylethynyl)-pyrazin-2-ylamine]"
19,37.2 nM,"Cc1onc(-c2ccccc2)c1C#Cc1cnc(N)cn1 [Example 47, 5-(5-Methyl-3-phenyl-isoxazol-4-ylethynyl)-pyrazin-2-ylamine]"
